Results: patent publication US6472158B1, “Ustilipides, method for the production and the use thereof” (Aventis Pharma Deutschland GmbH, priority 1998, dated 2002)

Key:
Dopamine D3 receptor = target: T1, Dopamine D3 receptor (Homo sapiens, UniProt P35462); experiment: Dopamine D3 receptor binding assay ([N-methyl-3H]spiroperidol, CHO membranes); conditions: human D3 receptor in CHO membranes, room temperature, 60 minutes
T1 construct: expressed in transfected cells
Experimental: (§1) The ustilipides effectively antagonize dopamine D2 and D3 receptors. One measure of their activity is the IC50 which indicates the concentration of inhibitor at which the rate of the normal enzymatic reaction (or receptor antagonism) is reduced by 50%.
(§2) The D3 and D2 long genes were isolated from a human cDNA library and stably transfected into CHO cells (CHO=Chinese hamster ovary). Membrane fractions are obtained from single clones with high-level expression. The binding assay is carried out in 96-well plates at room temperature for 60 minutes. The reaction mixture contains 50 μl of [N-methyl-^3H]spiroperidol, 50 μl of test substance or S(−)-eticlopride made for nonspecific binding and 100 μl of membrane. The assay is stopped by rapid filtration through a GF/B filter into a Skatron 96 cell harvester. The filters are cut up and placed in containers (T trays, Wallac), and the radioactivity is determined in a scintillation counter.
(§3) The specific binding is defined as the difference between the total binding and the binding in the presence of 10 μM S(−)-eticlopride. The total binding corresponds approximately to 10% of the counts of the ligands employed in total.
(§4) The inhibition of the binding by a test substance is calculated by correlation with the control reaction. Analysis of the data took place using the LIGAND software package of McPherson, Munson & Rodbard, Elsevier-BIOSOFT.

[1] = target: T2, Dopamine D2 receptor (D2 long) (Homo sapiens, UniProt P14416); experiment: Dopamine D2 receptor binding assay ([N-methyl-3H]spiroperidol, CHO membranes); conditions: human D2 long receptor in CHO membranes, room temperature, 60 minutes
T2 construct: expressed in transfected cells
Experimental: as §1, §2, §3, §4

human erythrocytes = experiment: In vitro hemolysis; assay type: cell-based
Experimental: On use of the schizonellins, a fatal 100% hemolysis occurs at concentrations as low as 10 and 30 μg/ml respectively. Determination of the hemolytic effect of ustilipides A, B and C gave the following results, the hemolysis being measured by the percentage of ruptured cells.
The hemolysis experiments were carried out with human erythrocytes.
Venous blood freshly taken from humans, rhesus monkeys or beagle dogs is used to measure the hemolytic activity. The blood is collected in heparinized tubes and distributed in aliquots of 200 μl to 12 polyethylene tubes. One aliquot is mixed with 200 μl of distilled water and serves as 100% standard, and another is mixed with 200 μl of physiological saline (0.9% NaCl) (0% standard). 200 μl portions of substance dilutions in physiological saline to […] are distributed to the other tubes. All the tubes are cautiously agitated and then incubated at 37° C. for 3 hours. The 100% standard is then made up with 5 ml of distilled water, and the other tubes are each made up with 5 ml of physiological saline, and are centrifuged at 700 g for 5 minutes.
The hemolysis is determined by measuring the absorption of the supernatant in a spectrophotometer at a wavelength of 540 nm. The absorption of the standard with complete hemolysis is set at 100%. The absorption of the test product dilutions and of the 0% standard are measured and stated as a percentage of the maximum inducible hemolysis.

[2] = Physicochemical properties (solubility, stability); conditions: for solubility: alcohols and other organic solvents
Excerpt: The physicochemical and spectroscopic properties of the ustilipides can be summarized as follows: […]

[3] = neutral and weakly acidic medium

T2 sequence (P14416 whole entry): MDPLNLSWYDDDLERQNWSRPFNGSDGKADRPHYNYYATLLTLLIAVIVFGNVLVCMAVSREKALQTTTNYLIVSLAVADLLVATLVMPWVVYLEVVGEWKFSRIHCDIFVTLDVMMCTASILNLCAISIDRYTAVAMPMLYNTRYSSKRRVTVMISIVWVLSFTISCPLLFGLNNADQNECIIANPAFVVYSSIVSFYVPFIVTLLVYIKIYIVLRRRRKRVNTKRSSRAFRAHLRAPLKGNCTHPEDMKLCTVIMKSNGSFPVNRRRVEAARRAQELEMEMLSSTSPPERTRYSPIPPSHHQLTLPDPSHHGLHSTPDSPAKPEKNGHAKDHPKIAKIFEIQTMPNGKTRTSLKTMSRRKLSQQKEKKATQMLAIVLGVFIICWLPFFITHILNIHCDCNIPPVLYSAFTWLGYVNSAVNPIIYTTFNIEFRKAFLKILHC
T1 sequence (P35462 whole entry): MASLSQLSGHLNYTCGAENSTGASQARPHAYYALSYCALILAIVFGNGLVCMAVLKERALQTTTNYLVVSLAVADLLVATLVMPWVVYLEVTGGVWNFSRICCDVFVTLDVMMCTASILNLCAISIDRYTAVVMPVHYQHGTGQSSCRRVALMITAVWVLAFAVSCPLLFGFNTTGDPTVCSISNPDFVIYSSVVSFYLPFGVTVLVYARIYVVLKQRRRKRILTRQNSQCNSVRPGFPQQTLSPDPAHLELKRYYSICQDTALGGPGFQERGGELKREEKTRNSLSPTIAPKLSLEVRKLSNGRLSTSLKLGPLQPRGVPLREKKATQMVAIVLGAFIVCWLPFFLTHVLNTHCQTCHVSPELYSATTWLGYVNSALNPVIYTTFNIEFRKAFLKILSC

SMILES	IC50 (Dopamine D3 receptor) [µM]	IC50 [1] [µM]	hemolysis (percentage of ruptured cells) (human erythrocytes; 8 μg/ml) [%]	hemolysis (percentage of ruptured cells) (human erythrocytes; 16 μg/ml) [%]	hemolysis (percentage of ruptured cells) (human erythrocytes; 32 μg/ml) [%]	hemolysis (percentage of ruptured cells) (human erythrocytes; 62.5 μg/ml) [%]	hemolysis (percentage of ruptured cells) (human erythrocytes; 125 μg/ml) [%]	solubility [2]	stability ([2]; alkaline solution)	stability [2, 3]
CCCCCCCCCCCCCCCC(=O)O[C@@H]1[C@H](OC(=O)CCCCC)[C@H](OC[C@@H](O)[C@@H](O)CO)O[C@H](COC(C)=O)[C@H]1OC(C)=O [Ustilipide A]	7.09	42.6	0.0	0.0	0.0	0.0	0.1	Colorless oil which is soluble in alcohols and other	medium but unstable in alkaline solution.	organic solvents. Stable in neutral and weakly acidic
CCCCCCCCCCCCCCCC(=O)O[C@@H]1[C@H](OC(=O)CCC)[C@H](OC[C@@H](O)[C@@H](O)CO)O[C@H](COC(C)=O)[C@H]1OC(C)=O [Ustilipide B]	10.3	23.6	0.0	0.0	0.0	0.0	0.4	Colorless oil which is soluble in alcohols and other	medium but unstable in alkaline solution.	organic solvents. Stable in neutral and weakly acidic
CCCCCCCCCCCCCCCC(=O)O[C@@H]1[C@H](OC(=O)C(C)C)[C@H](OC[C@@H](O)[C@@H](O)CO)O[C@H](CO)[C@H]1OC(C)=O [Ustilipide C]	18.9	14.2	0.0	0.4	0.4	0.5	0.8	Colorless oil which is soluble in alcohols and other	medium but unstable in alkaline solution.	organic solvents. Stable in neutral and weakly acidic
